Our source for the IC50 and Kd values is patent US20260015351A1, “METHODS AND COMPOUNDS FOR INHIBITING MKK7 ENZYMES” (AXONIS THERAPEUTICS, INC., priority 2022, published 2026).

Experiment [1] concerns the target T1, MKK7 (Homo sapiens (Human), UniProt O14733). The experiment can be described thus: MKK7 ADP-Glo in vitro pharmacology assay. It counts as biochemical. The note with it: calculated from remaining activity (%). How it is done: A study was conducted to determine the pharmacology of Compounds 1-18 in vitro in a plurality of biological matrices. Compounds 1-18 were prepared into proper concentrations of DMSO solution. The compound stock was then serially diluted into 10 concentrations by 3-fold dilution in 384 pp-plate. 5 nL of compound stock was transferred to a 384 plate. The compound stock was then diluted to 0.74 nM using a solution, which contained 0.79 mL of water, 0.2 mL of 5× Buffer, 2 μL of DTT, 6.66 μL of 7.5% BSA, and 5 μL of 10 mM ATP, to form an MKK7 mixture. The MKK7 mixture was then pre-warmed and 2.5 μL was added to each well designated for the “Test compound” and “High control” well, 2.5 μL solution 1 to each well designated for the “Low control” well. The well was incubated for 30 min and centrifuged at room temperature. Following centrifugation, 5 μL of ADD-Glo Reagent was added to each well and incubated for 60 min after centrifugation at room temperature. 10 μL of ADP-Glo Detection was then added to each well and incubated for 30 min after centrifugation in dark at room temperature. IC50 values were calculated based on the remaining activity (%) using read conversion ratio (CR).

For experiment [2], the target named is T1, MKK7. The experiment can be described thus: In vitro competitive binding assay (kinase-tagged phage / qPCR). The following applies: 11-point 3-fold dilution series; Hill slope set to -1. How it is done: Kinase-tagged T7 phage strains were prepared in an E. coli host derived from the BL21 strain. E. coli were grown to log-phase and infected with T7 phage and incubated with shaking at 32° C. until lysis. The lysates were centrifuged and filtered to remove cell debris. The remaining kinases were produced in HEK-293 cells and subsequently tagged with DNA for qPCR detection. Streptavidin-coated magnetic beads were treated with biotinylated small molecule ligands for 30 minutes at room temperature to generate affinity resins for kinase assays. The liganded beads were blocked with excess biotin and washed with blocking buffer (SeaBlock (Pierce), 1% BSA, 0.05% Tween 20, 1 mM DTT) to remove unbound ligand and to reduce non-specific binding. […] Kds were determined using an 11-point 3-fold compound dilution series with three DMSO control points. […] The kinase concentration in the eluates was measured by qPCR.
An 11-point 3-fold serial dilution of each test compound was prepared in 100% DMSO at 100× final test concentration and subsequently diluted to 1× in the assay (final DMSO concentration=1%). Most Kds were determined using a compound top concentration=30,000 nM. […]
Binding constants (Kds) were calculated with a standard dose-response curve using the Hill equation: […]

Molecules are shown by their SMILES. pIC50, pKd: −log10 of the molar value.

T1 sequence (O14733 whole entry): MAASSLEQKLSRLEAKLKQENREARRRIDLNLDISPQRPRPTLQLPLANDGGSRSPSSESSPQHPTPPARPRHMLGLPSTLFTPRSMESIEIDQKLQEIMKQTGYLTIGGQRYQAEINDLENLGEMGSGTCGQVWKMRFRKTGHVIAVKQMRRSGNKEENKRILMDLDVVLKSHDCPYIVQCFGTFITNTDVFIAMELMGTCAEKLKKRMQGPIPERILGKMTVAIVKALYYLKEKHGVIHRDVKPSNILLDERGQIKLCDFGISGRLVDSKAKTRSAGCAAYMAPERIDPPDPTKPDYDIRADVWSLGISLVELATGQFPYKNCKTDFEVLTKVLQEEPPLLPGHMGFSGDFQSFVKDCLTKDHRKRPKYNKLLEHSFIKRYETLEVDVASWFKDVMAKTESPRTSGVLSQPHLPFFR

`C=CC(=O)N1CCc2ccc(-c3n[nH]c4cnccc34)cc21` [Compound 1, 1-(6-{1H-pyrazolo[3,4-c]pyridin-3-yl}-2,3-dihydroindol-1-yl)prop-2-en-1-one]: at MKK7 [1], the pIC50 (usually the negative decadic logarithm of the IC50, by convention in mol/L) is 8.32.

In the case of `C=C(F)C(=O)N1CCc2ccc(-c3n[nH]c4ccccc34)cc21` [Compound 8, 2-fluoro-1-[6-(1H-indazol-3-yl)-2,3-dihydroindol-1-yl]prop-2-en-1-one], the pIC50 at MKK7 [1] is 6.08.

Regarding `C=CC(=O)N1CCc2ccc(-c3n[nH]c4cc(C#N)ccc34)cc21` [Compound 18, 3-[1-(prop-2-enoyl)-2,3-dihydroindol-6-yl]-1H-indazole-6-carbonitrile], the pIC50 at MKK7 [1] is 8.22.

`C=CC(=O)N1CCc2ccc(-c3n[nH]c4ncccc34)c(F)c21` [Compound 17, 1-(7-fluoro-6-{1H-pyrazolo[3,4-b]pyridin-3-yl}-2,3-dihydroindol-1-yl)prop-2-en-1-one]: the pIC50 on MKK7 [1] is 7.06.

On to `C=CC(=O)N1c2cc(-c3n[nH]c4ncccc34)ccc2C[C@@H]1C` [Compound 15-B], for which, at MKK7 [1], the pIC50 was 6.80.

Take `C=CC(=O)N1CCc2ccc(-c3n[nH]c4ccccc34)cc21` [Compound 14, 1-[6-(1H-indazol-3-yl)-2,3-dihydroindol-1-yl]prop-2-en-1-one]: at MKK7 [1], the pIC50 is 7.72.

`C=CC(=O)N1CCc2ccc(-c3n[nH]c4ccncc34)cc21` [Compound 3, 1-(6-{1H-pyrazolo[4,3-c]pyridin-3-yl}-2,3-dihydroindol-1-yl)prop-2-en-1-one]: the negative logarithm of the IC50 (pIC50) on MKK7 [1] was 7.52.

`CN(C)C/C=C/C(=O)N1CCc2ccc(-c3n[nH]c4ccccc34)cc21` [Compound 6, (2E)-4-(dimethylamino)-1-[6-(1H-indazol-3-yl)-2,3-dihydroindol-1-yl]but-2-en-1-one]: the pIC50 at MKK7 [1] was 6.74.

On to `N#C/C=C/C(=O)N1CCc2ccc(-c3n[nH]c4ccccc34)cc21` [Compound 5, (2E)-4-[6-(1H-indazol-3-yl)-2,3-dihydroindol-1-yl]-4-oxobut-2-enenitrile], for which the pIC50 on MKK7 [1] was 7.15.

With `C=CC(=O)N1CCOc2ccc(-c3n[nH]c4ccccc34)cc21` [Compound 13, 1-[6-(1H-indazol-3-yl)-2,3-dihydro-1,4-benzoxazin-4-yl]prop-2-en-1-one], the pIC50 at MKK7 [1] is 6.85.

`CCOC(=O)/C=C/C(=O)N1CCc2ccc(-c3n[nH]c4ccccc34)cc21` [Compound 7, ethyl (2E)-4-[6-(1H-indazol-3-yl)-2,3-dihydroindol-1-yl]-4-oxobut-2-enoate]: the pIC50 on MKK7 [1] was 5.41.

For `C=CS(=O)(=O)N1CCc2ccc(-c3n[nH]c4ncccc34)cc21` [Compound 16, 1-(ethenesulfonyl)-6-{1H-pyrazolo[3,4-b]pyridin-3-yl}-2,3-dihydroindole], the pIC50 at MKK7 [1] is 8.11.

Regarding `C=CC(=O)N1CCCc2ccc(-c3n[nH]c4ccncc34)cc21` [Compound 11, 1-(7-{1H-pyrazolo[4,3-c]pyridin-3-yl}-3,4-dihydro-2H-quinolin-1-yl)prop-2-en-1-one], the negative logarithm of the IC50 (pIC50) at MKK7 [1] was 5.85.

For the molecule `C=CC(=O)N1c2cc(-c3n[nH]c4ncccc34)ccc2CC1C` (stereo not drawn) [Compound 15, 1-[2-methyl-6-{1H-pyrazolo [3,4-b]pyridin-3-yl}-2,3-dihydroindol-1-yl]prop-2-en-1-one], on MKK7 [1], the pIC50 is 6.36.

Regarding `C=CC(=O)N1CCCc2ccc(-c3n[nH]c4cnccc34)cc21` [Compound 10, 1-(7-{1H-pyrazolo[3,4-c]pyridin-3-yl}-3,4-dihydro-2H-quinolin-1-yl)prop-2-en-1-one], at MKK7 [1], the pIC50 was 6.26.

Take `C=CC(=O)N1CCc2c(-c3n[nH]c4ccccc34)cccc21` [Compound 2, 1-[4-(1H-indazol-3-yl)-2,3-dihydroindol-1-yl]prop-2-en-1-one]: the pIC50 on MKK7 [1] was 7.04.

Consider `C/C=C/C(=O)N1CCc2ccc(-c3n[nH]c4ccccc34)cc21` [Compound 9, (2E)-1-[6-(1H-indazol-3-yl)-2,3-dihydroindol-1-yl]but-2-en-1-one], for which, at MKK7 [1], the pIC50 is 5.96.

As for `C=CC(=O)N1CCc2ccc(-c3n[nH]c4cc(C)ccc34)cc21` [Compound 4, 1-[6-(6-methyl-1H-indazol-3-yl)-2,3-dihydroindol-1-yl]prop-2-en-1-one], the pIC50 on MKK7 [1] was 7.64. Besides, the pKd – broadly, the Kd on a negative log10 scale, so that one unit is a factor of ten – at MKK7 [2] was 8.11.

For `C=CC(=O)N1CCCc2ccc(-c3n[nH]c4cc(C)ccc34)cc21` [Compound 12, 1-[7-(6-methyl-1H-indazol-3-yl)-3,4-dihydro-2H-quinolin-1-yl]prop-2-en-1-one], the pIC50 on MKK7 [1] is 6.80. At MKK7 [2], the pKd is 7.15.
